Experimental data from US20240118263A1, “TARGET FOR SCREENING ANTI-TUMOR DRUG, USE THEREOF AND SCREENING METHOD THEREFOR” (SHENYANG FUYANG PHARMACEUTICAL TECHNOLOGY CO., LTD., priority 2019, published 2024).
Entries after “also recorded” stand apart in the source; their conditions may differ.

Columns and labels:
LN229 and U251 cells = assay: Cell cycle analysis by flow cytometry (EdU and DAPI), glioblastoma cells; type: cell-based; settings: LN229 and U251, compared with control cells
Description: For monitoring cell-cycle arrest of ISP I-treated cells, Click-iT EdU Flow Cytometry Assay Kits were used, a product of ThermoFisher Scientific. Cells were co-cultured with EdU at a concentration of 10 μM for 1 hour. After fixation and permeabilization, EdU-positive cells were labeled with Alexa Fluor 647 fluorescein. DAPI also was used for measuring total DNA content to identify differences in cell cycle phases. Data were collected by means of a BD LSRFortessa flow cytometer using FlowJo software. Cells that are positive with EdU and DAPI were in S-Phase of the cell cycle.

SELH (Sec44→Cys44) = SELH (Sec44→Cys44) (Homo sapiens, UniProt Q8IZQ5, U44C); assay: SPR assay of ISP I with SELH synthesized in bacteria; type: binding
Text: Next, the inventors used a thermo-stability assay to confirm SELH was targeted by ISP I in LN229 and 786-O cell lines. The principle of the assay is based on altered protein thermal stabilization/destabilization due to ligand binding in living cells. […] (FIG. 11B and FIG. 12A). To verify further the specificity of ISP I's targeting of SELH, the inventors designed a surface plasmon resonance assay to assess the interaction of ISP I with SELH synthesized in bacteria.
The affinities constant (KD) and kinetics (ka and kd) of ISP I binding to SELH (Sec44→Cys44) were assayed using Biacore 8K (GE Healthcare, Sweden), all at 25° C. […] Coupling conditions were determined by protein isoelectric points. […]
To determine the binding affinity between ISP I and SELH (Sec44→Cys44), a series of ISP I dilutions was analyzed by single-cycle kinetics. […] The ISP I at various gradient concentrations and one zero concentration (running buffer) flowed over the immobilized SELH, with 120 s for binding, followed by disassociation for 120 s, and the obtained response units (RUs) were recorded. The RU values were collected, and the binding affinity data were calculated by kinetic models (1:1 interaction) within Biacore 8K Evaluation Software. The equilibrium dissociation constant (KD) was calculated to evaluate the ability of ISP I to interact with SELH.

SELH protein expression = SELH protein expression (Homo sapiens (Human), UniProt Q8IZQ5); assay: Western blot of SELH protein in ISP I-treated cells; type: cell-based
Description: (§1) A cycloheximide (CHX) chase assay was completed to assess ISP I's effect on SELH protein degradation.

[1] = system: LN229-luc intracranial tumor; assay: Intracranial LN229-luc glioblastoma xenograft mouse model; type: in vivo, NSG mice; settings: ISP I 66 mg/kg intraperitoneally daily, vs control group
Text: The inventors first assessed ISP I's anti-tumor activity in an intracranial mouse model (FIG. 13A). NSG mice were inoculated with 1×10^5 LN229-luc cells in the right-frontal cortex. After 7 days, intracranial tumor growth was confirmed via noninvasive in vivo bioluminescence imaging and mice were randomized into ISP I or DMSO (control) treatment groups.
Mice experiments were approved by the National Institute of Neurological Disorders and Stroke (NINDS) and National Cancer Institute (NCI) Animal Use and Care Committees. For intracranial xenografts establishment, NOD-Prkde^scidIl2rg^tmiWjl (NSG) mice (6-8 weeks old from the NCI-Frederick animal facility) were inoculated intracranially with 100,000 LN229-luc cells suspended in 2 μL Hank's Balanced Salt Solution (HBSS), a product of Crystalgen (Commack, NY USA). After one week, luciferin signals were detected to confirm the survival of tumor cells in mice. The mice were assigned to the indicated groups according to the signal intensity, in order to keep the baseline balanced. ISP I was injected intraperitoneally daily at a dose of 66 mg/kg body weight for 24 days. The mice in control group were injected with the same volume of corn oil or saline. The viability of tumors was monitored every four days. […]

786-O xenograft = assay: 786-O subcutaneous xenograft model; type: in vivo, NSG mice; settings: 35 mg/kg intraperitoneally daily, vs control
Description: For subcutaneous xenografts, NSG mice (6-8 weeks old) from the NCI-Frederick animal facility and Jackson Lab (Bar Harbor, ME USA) were injected with 5×10^6 to 1×10^7 cells subcutaneously in the flank. One week later, the tumor-bearing mice were randomly assigned to different groups and made the tumor volume baseline equivalent and treated with normal saline or Zenomycin (35 mg/kg) everyday intraperitoneally. Tumors were measured using a caliper, and volume was calculated.

[2] = system: B16 melanoma lung metastasis; assay: Metastatic murine melanoma (B16) lung metastasis model; type: in vivo, C57BL/6 mice; settings: ISP I 35 mg/kg intraperitoneally daily, 12 days, vs saline
Description: In addition to the aforementioned xenograft tumor models, the anti-tumor activity of ISP I was assessed in a metastatic murine melanoma (B16) model. Mice were intravenously injected with 2×10^5 B16 cells and randomized into the following three treatment groups: ISP I (35 mg/kg), Carrimycin (56 mg/kg), Saline (control) (FIG. 13D).
For metastasis study, C57BL/6 mice (4-5 weeks) from Charles River Laboratories (Wilmington, MA USA) were assigned randomly to one or another of two groups, 9 animals per group. B16-F10 mouse skin melanoma cells (2×10^5) were resuspended in 100 μl saline and injected through tail vein. After treatment with ISP I at 35 mg/kg for 12 days, all mice were euthanized, and the lungs were examined for counting black metastasis dots.

SELH protein degradation = SELH protein degradation (Homo sapiens (Human), UniProt Q8IZQ5)
Sequence of SELH protein degradation (Q8IZQ5 whole entry): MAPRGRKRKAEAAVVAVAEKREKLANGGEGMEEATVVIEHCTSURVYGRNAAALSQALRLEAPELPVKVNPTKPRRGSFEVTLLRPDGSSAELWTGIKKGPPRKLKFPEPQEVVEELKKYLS
Description: as §1

Sequence of SELH protein expression (Q8IZQ5 whole entry): as above
Sequence of SELH (Sec44→Cys44) (Q8IZQ5 with tags, fused parts or gaps U44C): as the sequence (Q8IZQ5 whole entry) above, with U44C counted along it

CO[C@@H]1[C@@H](O[C@@H]2O[C@H](C)[C@@H](O[C@H]3C[C@@](C)(O)[C@@H](OC(=O)CC(C)C)[C@H](C)O3)[C@H](N(C)C)[C@H]2O)[C@@H](CC=O)C[C@@H](C)[C@@H](O[C@H]2CC[C@H](N(C)C)[C@@H](C)O2)/C=C/C=C/C[C@@H](C)OC(=O)C[C@H]1O [Isovalerylspiramycin I, 4″-isovalerylspiramycin I]
cell distribution in cell cycle phases (LN229 and U251 cells): dose-dependent increase in the G0/G1 phase and a decrease in the S phase | binding to SELH versus other proteins (SELH (Sec44→Cys44)): tightly binds to SELH but does not bind with the other proteins | SELH protein expression (SELH protein expression; LN229 cells, different concentrations of ISP I): reduced SELH protein expression in LN229 cells in a dose-dependent manner | SELH levels in glioblastoma cell lines (SELH protein expression; T98G, U118, LN229, U251, 10 μg/mL of ISP I for 24 hours): decreased SELH levels | tumor growth by bioluminescence imaging [1]: significantly reduced tumor growth; also recorded: complete response | tumor size and weight, 786-O xenograft (786-O xenograft): significantly reduced tumor size and weight | lung tumor nodules [2]: significantly reduced lung tumor nodules | SELH protein half-life (SELH protein degradation): reduced the SELH protein half-life
